Measurements as given in US20240218344A1, “LIQUID THROMBIN REAGENT” (Instrumentation Laboratory Company, priority 2022, published 2024).
Where a name gives a salt, the structure may show the parent alone.

What was measured:
Type in all cases: biochemical
bovine thrombin [1] = target: bovine thrombin (Bos taurus, UniProt P00735); test: Stability of liquid thrombin reagent with alkylated guanidine derivatives, clotting assay; conditions: 25 mM guanidine derivative, approximately 75 U/mL bovine thrombin, MES pH 6.3, stored at 37° C. for 7 or 14 days; FIG. 5
Protocol: (§1) In the clotting assay, the liquid thrombin reagent was diluted with an aqueous buffer to a final thrombin concentration of within 5 to 15 U/mL of thrombin. Then, 20 to 40 microliters (μL) of the diluted liquid thrombin reagent was mixed with 80 μL of a reaction buffer containing 20 mM HEPES, pH 7.4, containing 150 mM NaCl and 0.5% BSA (bovine serum albumin). After an incubation period of 60 to 90 seconds at 37° C., 80 μL of normal pooled plasma was added to the mixture and the time to clot was determined using a threshold algorithm.
The effects of guanidine derivatives were analyzed using a clotting assay. In this experiment, liquid thrombin reagents containing bovine thrombin were diluted to a final concentration of approximately 75 U/mL thrombin with an aqueous buffer comprising a MES buffer containing 20 mM MES, pH 6.3, and 0.1% ProClin™ 300, with and without 25 mM of 1-methylguanidine (MMG), 25 mM of 1.1-dimethylguanidine (DMG) and 25 mM of 1,1-diethylguanidine (DEG).
Liquid thrombin reagents of the type described herein containing guanidine derivatives, and one without a guanidine derivative, were stored at 37° C. for 0, 7, and 14 days and tested using the clotting assay after mixing with normal pooled plasma.

factor Xa = test: Factor Xa chromogenic assay with guanidine and guanidine derivatives; conditions: dilution series in water, 6 nkat/mL factor Xa, substrate S-2732, 405 nm; FIG. 4
Protocol: In this experiment, the effects of guanidine sulfate and the guanidine derivatives: 1-methylguanidine sulfate, 1,1-dimethylguanidine sulfate, 1,1-diethylguanidine, and N-benzyl, N-methylguanidine sulfate were analyzed using a chromogenic assay. A series of dilutions was prepared in water with guanidine or a guanidine derivative of the type described herein. 40 μL of each of the guanidine or guanidine derivatives were mixed for 20 to 60 seconds with 40 μL of 6 nanokatal per milliliter (nkat/mL) factor Xa diluted in 20 mM HEPES, pH 7.5 buffer. After an incubation period of 150 to 180 seconds, 100 μL of the factor Xa chromogenic substrate S-2732 (1.5 mM) was added to each of the guanidine and factor Xa mixtures and was chromogenically measured at 405 nm milli-absorbance per minute (mAbs/min) after a 20 second delay.

thrombin [2] = test: Alkylated guanidine concentrations for thrombin stability, clotting assay; conditions: less than 20 mM DMG, 7 U/mL thrombin, 37° C. for 20 days versus 2 to 8° C.; FIG. 6
Protocol: as §1
A series of liquid thrombin reagents containing dimethylguanidine (DMG) were analyzed using a clotting assay. A series of liquid thrombin reagents containing 7 U/mL liquid thrombin were prepared in an aqueous buffer containing 20 mM MES, pH 6.3, 0.1% ProClin™ 300, and a final concentration of 5, 10, 15, 20, 25, or 30 mM DMG. The resulting liquid thrombin reagents were stored at 37° C for 20 days, and the remaining thrombin activity was compared to the liquid thrombin reagent containing the same concentration of guanidine derivative stored at 2 to 8° C. for 20 days.

thrombin [3] = test: Thrombin concentrations for liquid thrombin reagent stability, clotting assay; conditions: 30 mM DMG, 37° C. for 7 days, FIG. 7
Protocol: as §1
The effect of guanidine derivatives on a series of thrombin concentrations were analyzed using a clotting assay. A series of liquid thrombin reagents containing 30 mM DMG were prepared by diluting a 100 U/mL thrombin liquid thrombin reagent in MES buffer (containing 30 mM DMG, 20 mM MES, pH 6.3, and 0.1% ProClin™ 300) with MES buffer to final concentrations of 70, 56, 42, 28, 14 or 7 U/mL thrombin. The liquid thrombin reagents were stored at 37° C. for 7 days and tested for thrombin activity using the clotting assay.

bovine thrombin [4] = test: Stability of liquid thrombin reagent with apixaban, clotting assay; conditions: 500 ng/ml apixaban, approximately 100 U/mL bovine thrombin, stored at 45° C. for 0-14 days; FIG. 3
Protocol: In the clotting assay, the liquid thrombin reagent was diluted with an aqueous buffer to a final thrombin concentration of within 5 to 15 U/mL of thrombin. Then, 20 to 40 microliters (μL) of the diluted liquid thrombin reagent was mixed with 80 μL of a reaction buffer containing 20 mM HEPES, pH 7.4, containing 150 mM NaCl and 0.5% BSA (bovine serum albumin). After an incubation period of 60 to 90 seconds at 37° C., 80 μL of normal pooled plasma was added to the mixture and the time to clot was determined using a threshold algorithm. In this experiment, the effects of the direct factor Xa inhibitor apixaban was analyzed using a clotting assay. Liquid thrombin reagent containing low purity grade bovine thrombin was diluted to a final concentration of approximately 100 U/mL thrombin in an aqueous buffer containing 20 mM MES, pH 6.1, 100 mM NaCl, 25 mM sodium acetate, 25 mM sodium lactate, 5 mM CaCl2, 0.5% BSA, and 0.4 g/L NaN3. Apixaban was dissolved in dimethyl sulfoxide (DMSO) and diluted to a final concentration of 500 ng/ml apixaban in a sample of the liquid thrombin reagent. Liquid thrombin reagents with and without apixaban were stored at 45° C. for 0, 2, 4, 7, 10 and 14 days, and tested in quadruplicate by the clotting assay after mixture with normal pooled plasma. […]

Question: For `CN(C)C(=N)N.O=S(=O)(O)O` [dimethylguanidine sulfate, 1,1-dimethylguanidine sulfate], which “thrombin activity after storage” value (bovine thrombin [1]) is on record?
Answer: little or no decrease in thrombin activity

Question: And the “factor Xa inhibition” value (factor Xa)?
Answer: largest extent of factor Xa inhibition

Question: And the remaining thrombin activity (thrombin [2])?
Answer: declined

Question: What about the remaining thrombin activity (thrombin [3]; less than about 20 U/mL thrombin) of the same compound?
Answer: declined

Question: What about the remaining thrombin activity (thrombin [3]; more than about 20 U/mL thrombin) of the same compound?
Answer: did not decline significantly

Question: How did the “thrombin activity after storage” value (bovine thrombin [1]) turn out when `CNC(=N)N.O=S(=O)(O)O` [1,1 methylguanidine sulfate, 1-methylguanidine sulfate] was run?
Answer: little or no decrease in thrombin activity

Question: How did the “factor Xa inhibition” value (factor Xa) turn out when `N=C(N)N.N=C(N)N.O=S(=O)(O)O` [guanidine sulfate, reference compound] was run?
Answer: least reduction in factor Xa inhibition

Question: How did the “thrombin activity after storage” value (bovine thrombin [1]) turn out when `CCN(CC)C(=N)N` [diethylguanidine sulfate, 1,1-diethylguanidine] was run?
Answer: little or no decrease in thrombin activity

Question: And the “factor Xa inhibition” value (factor Xa)?
Answer: largest extent of factor Xa inhibition

Question: With `COc1ccc(-n2nc(C(N)=O)c3c2C(=O)N(c2ccc(N4CCCCC4=O)cc2)CC3)cc1` [apixaban] as the compound, how does the “stability of the liquid thrombin reagent (time-to-clot versus reagent without apixaban)” value (bovine thrombin [4]) read?
Answer: improves the stability of the liquid thrombin reagent in the long term

Question: Which “factor Xa inhibition” value (factor Xa) does the source give for `CN(Cc1ccccc1)C(=N)N.O=S(=O)(O)O` [N-benzyl N-methylguanidine sulfate, N-benzyl, N-methylguanidine sulfate] here?
Answer: reduced factor Xa inhibition
